The text below walks through data of patent publication EP2951180B1, “2,6,7,8 SUBSTITUTED PURINES AS HDM2 INHIBITORS” (Merck Sharp & Dohme Corp., priority 2013, dated 2014).

Each structure is given as a SMILES string.

For this experiment, the target named is T1, HDM2 (Homo sapiens, UniProt Q00987).
T1 construct: Thioredoxin (N); made in house; host or cells: E. coli strain BL21(DE3)Rosetta
T1 sequence (Q00987 17-125): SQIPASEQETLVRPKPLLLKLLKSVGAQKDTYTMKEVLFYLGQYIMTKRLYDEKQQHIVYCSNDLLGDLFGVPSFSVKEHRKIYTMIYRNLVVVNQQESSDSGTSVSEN
As to the kind of experiment: FRET assay (HDM2 inhibition; method not described in this part). In kind it is binding. To be noted: Table 2.
One may read the IC50 as the midpoint of a concentration-inhibition curve. Lower therefore signals higher potency. In the case of `Cc1cccc(-c2nc3nc(C(=O)O)nc(N[C@H](C)C4CCC4)c3n2Cc2ccc(C(F)(F)F)cc2)c1` [Example 2.11, 6-{[(1R)-1-cyclobutylethyl]amino}-8-(3-methylphenyl)-7-[4-(trifluoromethyl)benzyl]-7H-purine-2-carboxylic acid], the IC50 amounted to 36.6 nM.
As for `Cc1ccc(C)c(-c2nc3nc(C(=O)O)nc(N[C@H](C)C4CC4)c3n2Cc2ccc(Cl)cc2)c1` [Example 2.12, 7-(4-chlorobenzyl)-6-{[(1R)-1-cyclopropylethyl]amino}-8-(2,5-dimethylphenyl)-7H-purine-2-carboxylic acid], the figure is 199 nM; as for `Cc1cc(-c2nc3nc(C(=O)O)nc(N[C@H](C)C4CC4)c3n2Cc2ccc(Cl)cc2)ccc1F` [Example 2.13, 7-(4-chlorobenzyl)-6-{[(1R)-1-cyclopropylethyl]amino}-8-(4-fluoro-3-methylphenyl)-7H-purine-2-carboxylic acid], 40.4 nM.
As for `COc1cccc(-c2nc3nc(C(=O)O)nc(N[C@H](C)C4CC4)c3n2Cc2ccc(C(F)(F)F)cc2)c1` [Example 2.14, 6-{[(1R)-1-cyclopropylethyl]amino}-8-(3-methoxyphenyl)-7-[4-(trifluoromethyl)benzyl]-7H-purine-2-carboxylic acid], the figure is 339 nM; as for `CCOc1cccc(-c2nc3nc(C(=O)O)nc(N[C@H](C)C4CC4)c3n2Cc2ccc(C(F)(F)F)cc2)c1` [Example 2.15, 6-{[(1R)-1-cyclopropylethyl]amino}-8-(3-ethoxyphenyl)-7-[4-(trifluoromethyl)benzyl]-7H-purine-2-carboxylic acid], 304 nM.
As for `CCc1cccc(-c2nc3nc(C(=O)O)nc(N[C@H](C)C4CC4)c3n2Cc2ccc(C(F)(F)F)cc2)c1` [Example 2.16, 6-{[(1R)-1-cyclopropylethyl]amino}-8-(3-ethylphenyl)-7-[4-(trifluoromethyl)benzyl]-7H-purine-2-carboxylic acid], the figure is 180 nM.
`CCOc1cccc(-c2nc3nc(C(=O)O)nc(N[C@H](C)C4CCC4)c3n2Cc2ccc(C(F)(F)F)cc2)c1` [Example 2.17, 6-{[(1R)-1-cyclobutylethyl]amino}-8-(3-ethoxyphenyl)-7-[4-(trifluoromethyl)benzyl] -7H-purine-2-carboxylic acid] showed an IC50 of 40.2 nM.
As for `CC(C)c1cccc(-c2nc3nc(C(=O)O)nc(N[C@H](C)C4CC4)c3n2Cc2ccc(C(F)(F)F)cc2)c1` [Example 2.18, 6-{[(1R)-1-cyclopropylethyl]amino}-8-[3-(1-methylethyl)phenyl]-7-[4-(trifluoromethyl)benzyl]-7H-purine-2-carboxylic acid], the figure is 123 nM; as for `C[C@@H](Nc1nc(C(=O)O)nc2nc(-c3cccc(C(C)(C)C)c3)n(Cc3ccc(C(F)(F)F)cc3)c12)C1CC1` [Example 2.19, 8-(3-tert-butylphenyl)-6-{[(1R)-1-cyclopropylethyl]amino}-7-[4-(trifluoromethyl)benzyl]-7H-purine-2-carboxylic acid], 145 nM; as for `C[C@@H](Nc1nc(C(=O)O)nc2nc(-c3ccc(C(F)(F)F)cc3)n(Cc3ccc(C(F)(F)F)cc3)c12)C1CC1` [Example 2.20, 6-{[(1R)-1-cyclopropylethyl]amino}-7-[4-(trifluoromethyl)benzyl]-8-[4-(trifluoromethyl)phenyl]-7H-purine-2-carboxylic acid], 1410 nM.
On to `COc1ccc(-c2nc3nc(C(=O)O)nc(N[C@H](C)C4CC4)c3n2Cc2ccc(C(F)(F)F)cc2)cc1` [Example 2.21, 6-{[(1R)-1-cyclopropylethyl]amino}-8-(4-methoxyphenyl)-7-[4-(trifluoromethyl)benzyl]-7H-purine-2-carboxylic acid], for which the IC50 was 253 nM.
The compound `C[C@@H](Nc1nc(C(=O)O)nc2nc(-c3cccc(Cl)c3)n(Cc3ccc(C(F)(F)F)cc3)c12)C1CC1` [Example 2.22, 8-(3-chlorophenyl)-6-{[(1R)-1-cyclopropylethyl]amino}-7-[4-(trifluoromethyl)benzyl]-7H-purine-2-carboxylic acid] registered an IC50 of 124 nM.
